The term pIC50 denotes −log10 of the IC50, conventionally taken in molar units.

Structures are written as SMILES. pIC50: −log10 of the molar value. A value given as a limit tells only on which side of the number the result lay.

Experiment [1] concerns MTXRIIOuaR2-4 CHO cells (R2; RFC-, PCFT-, and FR-null). Nature of the experiment: Cell proliferation assay, transporter-null R2 CHO cells. In kind it is cell-based, Chinese hamster. The settings on record: Cricetulus griseus, 96 h, 0-1000 nM, mean (standard error), 3-5 experiments. An excerpt:
(§1) To assess the impact of 6-methyl substitutions on the bicyclic scaffolds of the pyrrolo[2,3-d]pyrimidine antifolates 1–4 on RFC transport vis-à-vis PCFT, FRα, and FRβ, we used a unique biological readout for transport activity. This involved proliferation assays with isogenic Chinese hamster ovary (CHO) sublines derived from RFC-, FR-, and PCFT-null MTXRIIOua^R2–4 CHO cells[39],[40] engineered to express the human FRα (RT16),[25] FRβ (D4),[25] RFC (PC43–10),[41] or PCFT (R2/PCFT4).[26],[42] As these CHO cell lines are genetically identical except for their folate transporters, differences in inhibition of cell proliferation by specific cytotoxic antifolates directly reflect transporter specificities.[19],[23]−[31],[42] […]
(§2) Reagents for biological studies. Leucovorin [(6R,S) 5-formyl tetrahydrofolate] and methotrexate (MTX) was provided by the Drug Development Branch, National Cancer Institute, Bethesda, MD. Other chemicals were obtained from commercial sources in the highest available purities. Pemetrexed (PMX; 1) [N-{4-[2- (2-amino-3,4-dihydro-4-oxo-7H-pyrrolo[2,3-d]pyrimidin-5-yl)ethyl]benzoyl-L-glutamic acid] (Alimta) was purchased from LC Laboratories (Woburn, MA). The syntheses of compounds 2 and 3 were previously described.7, 8 Additional chemicals were purchased from commercial sources in the highest available purities.
(§3) Cell Culture. The reduced folate carrier (RFC), proton-coupled folate transporter (SLC46A1; PCFT) and folate receptor (FR) α- and β-null Chinese hamster ovary (CHO) cell line MTXRIIOuaR2-49 was a gift from Dr. Wayne Flintoff (University of Western Ontario, London, ON). Four sublines were derived from the R2 subline by transfection with either RFC, PCFT, FRα, or FRβ, giving rise to PC43-10 (expresses human RFC), 10 R2/PCFT4 (expresses human PCFT),11 RT16 (expresses human FRα), 12 and D4 (expresses FRβ) cells. 12 Isogenic CHO sublines were routinely cultured in α-minimal essential medium (α-MEM) supplemented with 100 units/mL penicillin/100 μg/mL streptomycin, 2 mM L-glutamine and 10% bovine calf serum (Sigma-Aldrich). Transfected sublines of R2 cells were cultured in the presence of 1.5 mg/ml G418. […]
(§4) mM L-glutamine. Cell lines were tested for Mycoplasma by PCR using a Mycloplasma testing kit (Venor™ GeM Mycoplasma Detection Kit, Sigma). Frozen stocks were generated from authenticated Mycoplasma-free cultures.
(§5) For cell proliferation assays, CHO, KB, NCI-IGROV1 and IOSE 7576 cells were plated in 96-well dishes at densities ranging from 2500-5000 cells/well in 200 μL media and treated with a range of inhibitors spanning 0-1000 nM. Experiments with RT16, D4, IGROV1, IOSE 7576 and KB cells used folate-free RPMI 1640 (FF RPMI) media with 10% dialyzed fetal bovine serum and 100 units/mL penicillin/100 μg/mL streptomycin, supplemented with 2 nM leucovorin and 2 mM L-glutamine. FR-mediated drug uptake was assessed in parallel incubations including 200 nM folic acid. For R2/PCFT4, PC43-10 and R2 CHO cells, the medium was FF-RPMI supplemented with 10% dialyzed fetal bovine serum, 100 units/mL penicillin/100 μg/mL streptomycin, 25 nM leucovorin and 2 mM L-glutamine.
(§6) Cells were treated over a 96 h period at 37° C with 5% CO2 and relative cell numbers quantified using the CellTiter-blue cell viability assay (Promega, Madison, WI) and a fluorescence plate reader. Raw data were exported to Excel for analysis and the results were plotted using Graphpad Prism 6.0. Determinations of IC50s were made […]
(§7) assays have been previously described.7, 8, 11, 12, 15-20
(§8) Using KB cells, additional proliferation assays were performed with metabolite protection in folate- and glycine-free RPMI1640 with 10% dialyzed fetal bovine serum, 2 mM L-glutamine and antibiotics with 2 nM leucovorin to identify the targeted pathway and enzyme(s). 7, 8, 11, 12, 15-20 Inhibitory effects of the novel analogs on de novo thymidylate biosynthesis and de novo purine nucleotide biosynthesis were tested by incubating drugs with thymidine (10 μM) and adenosine (60 μM), respectively. […]

Experiment [2] relates to PC43-10 (RFC) CHO cells. Nature of the experiment: Cell proliferation assay, PC43-10 CHO cells expressing human RFC. It is filed as cell-based, Chinese hamster. To be noted: Cricetulus griseus, 96 h, 0-1000 nM, mean (standard error), 3-5 experiments.
Text: as §1, §2, §3, §4, §5, §6, §7, §8

The subject of experiment [3] is KB nasopharyngeal carcinoma cells. Nature of the experiment: Cell proliferation assay, KB tumor cells. In kind it is cell-based, human. The settings on record: for pIC50: Homo sapiens, 96 h, 0-1000 nM, mean (standard error), 3-5 experiments.
Text: (§9) For the tumor cells, except the des-methyl compound 4 with IGROV1 cells, all compounds were inhibitory. […]
(§10) Reagents for biological studies. Leucovorin [(6R,S) 5-formyl tetrahydrofolate] and methotrexate (MTX) was provided by the Drug Development Branch, National Cancer Institute, Bethesda, MD. Other chemicals were obtained from commercial sources in the highest available purities. Pemetrexed (PMX; 1) [N-{4-[2- (2-amino-3,4-dihydro-4-oxo-7H-pyrrolo[2,3-d]pyrimidin-5-yl)ethyl]benzoyl-L-glutamic acid] (Alimta) was purchased from LC Laboratories (Woburn, MA). The syntheses of compounds 2 and 3 were previously described.7, 8 Additional chemicals were purchased from commercial sources in the highest available purities. […]
(§11) KB nasopharyngeal carcinoma cells were obtained from the American Type Culture Collection (Manassas, VA) and IGROV1 (NCI-IGROV1) (passage 5) ovarian adenocarcinoma cells13 were obtained from the Division of Cancer Treatment and Diagnosis, National Cancer Institute (Frederick, MD). Normal ovary cells immortalized with SV40 (IOSE 7576)14 were obtained from the Canadian OvCaRe Cell Bank […]
(§12) (Vancouver, B.C). IGROV1, KB and IOSE 7576 cells were cultured in complete FF-RPMI with 10% fetal bovine serum and 100 units/mL penicillin/100 μg/mL streptomycin, and 2 mM L-glutamine. Cell lines were tested for Mycoplasma by PCR using a Mycloplasma testing kit (Venor™ GeM Mycoplasma Detection Kit, Sigma). Frozen stocks were generated from authenticated Mycoplasma-free cultures.
as §5, §6
(§13) assays have been previously described.7, 8, 11, 12, 15-20 […]
(§14) 7, 8, 11, 12, 15-20 Inhibitory effects of the novel analogs on de novo thymidylate biosynthesis and de novo purine nucleotide biosynthesis were tested by incubating drugs with thymidine (10 μM) and adenosine (60 μM), respectively. Incubation with glycine (130 µM) was used to assess the potential involvement of mitochondrial C1 targeted agents.15 To identify multiple metabolic targets, metabolite additions were added in combination.7, 8, 11, 12, 15-19 Finally, to distinguish targeting between the folate-dependent purine biosynthetic enzymes glycinamide ribonucleotide formyltransferase (GARFTase) and 5-aminoimidazole-4-carboxamide (AICA) ribonucleotide formyltransferase (AICARFTase), co-incubation experiments were performed using AICA hydrochloride (320 μM). 7, 8, 11, 12, […]
(§15) Statistics. The biological data reflect at least three experimental replicates. All statistical comparisons were performed using unpaired t-tests. Biological data are presented as mean values +/- standard errors using data without transformation.

Experiment [4] deals with IGROV1 epithelial ovarian cancer cells. Description: Cell proliferation assay, IGROV1 tumor cells. The settings on record: for pIC50: Homo sapiens, IGROV-1, 96 h, 0-1000 nM, mean (standard error), 3-5 experiments; for potency toward IGROV1 cells compared with IOSE 7576 cells (in words): IGROV1 vs IOSE 7576. In kind it is cell-based, human.
Text: as §9, §10, §11, §12, §5, §6, §13, §14, §15

On to `Nc1nc2[nH]cc(CCc3ccc(C(=O)N[C@@H](CCC(=O)O)C(=O)O)cc3)c2c(=O)[nH]1` [Compound 1, reference compound], for which the pIC50 was less than 6.00 in experiment [1], 7.51 in experiment [2], 8.00 in experiment [3] and 7.15 in experiment [4]. In addition, the “potency toward IGROV1 cells compared with IOSE 7576 cells (in words)” value in experiment [4] is on record as “more active toward IGROV1 cells”.

In turn, `Nc1nc2[nH]cc(CCCc3ccc(C(=O)N[C@@H](CCC(=O)O)C(=O)O)cc3)c2c(=O)[nH]1` [Compound 2] gave a pIC50 in experiment [1] of less than 6.00. Moreover, in experiment [4], the pIC50 is 7.28 and the “potency toward IGROV1 cells compared with IOSE 7576 cells (in words)” value was “more potent toward IOSE 7576 cells than IGROV1 cells”.

For the molecule `Nc1nc2[nH]cc(CCc3ccc(C(=O)N[C@@H](CCC(=O)O)C(=O)O)s3)c2c(=O)[nH]1` [Compound 3], the pIC50 was less than 6.00 in experiment [1], 7.22 in experiment [2], 6.08 in experiment [3] and 6.49 in experiment [4]. Besides, in experiment [4], the “potency toward IGROV1 cells compared with IOSE 7576 cells (in words)” value is recorded as “more potent toward IOSE 7576 cells than IGROV1 cells”.

In the case of `Nc1nc2[nH]cc(CCc3ccc(C(=O)N[C@@H](CCC(=O)O)C(=O)O)c(F)c3)c2c(=O)[nH]1` [Compound 4], the pIC50 was less than 6.00 in experiment [1], 6.77 in experiment [2], 7.11 in experiment [3] and less than 6.00 in experiment [4]. Moreover, the “inhibition of IGROV1 cells (in words)” value in experiment [4] was “inactive”.

For `Cc1[nH]c2nc(N)[nH]c(=O)c2c1CCc1ccc(C(=O)N[C@@H](CCC(=O)O)C(=O)O)cc1` [Compound 5], the pIC50 in experiment [1] is less than 6.00; in experiment [2], less than 6.00; in experiment [3], 7.55; in experiment [4] it was 8.03.

With `Cc1[nH]c2nc(N)[nH]c(=O)c2c1CCCc1ccc(C(=O)N[C@@H](CCC(=O)O)C(=O)O)cc1` [Compound 6], the pIC50 is less than 6.00 in experiment [1], less than 6.00 in experiment [2], 7.30 in experiment [3] and 6.12 in experiment [4]. The “inhibition of IGROV1 cells (in words)” value in experiment [4] is “modestly inhibitory”.

For the molecule `Cc1[nH]c2nc(N)[nH]c(=O)c2c1CCc1ccc(C(=O)N[C@@H](CCC(=O)O)C(=O)O)s1` [Compound 7], the pIC50 in experiment [1] is less than 6.00; in experiment [2] it was less than 6.00; in experiment [3], 8.46; in experiment [4] it was 8.60. For the same molecule, the “greater potency than the corresponding 6-desmethyl analogue 3, KB cells” value in experiment [3] (KB cells, relative to compound 3) is 242 fold. In addition, the “greater potency than the corresponding 6-desmethyl analogue 3, IGROV1 cells” value in experiment [4] (IGROV1 cells, relative to compound 3) was found to be 127 fold.

As to `Cc1[nH]c2nc(N)[nH]c(=O)c2c1CCc1ccc(C(=O)N[C@@H](CCC(=O)O)C(=O)O)c(F)c1` [Compound 8], the pIC50 is less than 6.00 in experiment [1], less than 6.00 in experiment [2], 6.46 in experiment [3] and 6.87 in experiment [4].

For the origin of these results see PMC10726441, “Discovery of Tumor-Targeted 6-Methyl Substituted Pemetrexed and Related Antifolates with Selective Loss of RFC Transport” (ACS Medicinal Chemistry Letters, 2023).
